pIC50: −log10 of the molar value.
Experiments:
[1] = system: NCI-H358 (K-Ras G12C); assay: CellTiter-Glo cell viability assay, NCI-H358; type: cell-based, human; conditions: Homo sapiens, NCI-H358, 120 h, NCI-H358, 5-day treatment; class symbols; read-out: Additional H358 Cell Viability assay data (K-Ras G12C, IC50)
Outline: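 Luminescent viability readout on day 5 after direct compound addition to plated cells; plates sat ~30 min at room temperature before reading. Values expressed as percent of mean DMSO signal, curves fit with a four-parameter logistic model.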

[2] = biological target: K-Ras G13C (Homo sapiens (Human), UniProt P01116+P62937, G13C); assay: Ras-Raf (BRAF RBD) disruption / FRET / MOA assay, KRAS G13C; type: biochemical; conditions: KRAS G13C; Ras-Raf disruption/FRET/MOA assay; read-out: IC50* KRAS G13C FRET data
Outline: (§1)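 Ternary complex formation (Ras–compound–cyclophilin A) displacing BRAF RBD, monitored by TR-FRET. Three hours at 25° C with compound (top 30 μM final), then 1.5 h with the labelled antibodies. Lower ratio than DMSO indicates disruption; IC50 reported.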

[3] = biological target: KRAS G12S (Homo sapiens (Human), UniProt P01116+P62937, G12S); assay: Ras-Raf (BRAF RBD) disruption / FRET / MOA assay, KRAS G12S; type: biochemical; conditions: Ras-Raf disruption/FRET/MOA assay; class symbols; read-out: KRAS G12S FRET data IC50
Outline: as §1

[4] = biological target: KRAS G12D (Homo sapiens (Human), UniProt P01116+P62937, G12D); assay: Ras-Raf (BRAF RBD) disruption / FRET / MOA assay, KRAS G12D; type: biochemical; conditions: Ras-Raf disruption/FRET/MOA assay; class symbols; read-out: KRAS G12D FRET data IC50
Outline: as §1

[5] = biological target: KRAS G12V (Homo sapiens (Human), UniProt P01116+P62937, G12V); assay: Ras-Raf (BRAF RBD) disruption / FRET / MOA assay, KRAS G12V; type: biochemical; conditions: read-out: IC50* KRAS G12V FRET data
Outline: as §1

[6] = biological target: KRAS WT (Homo sapiens (Human), UniProt P01116+P62937); assay: Ras-Raf (BRAF RBD) disruption / FRET / MOA assay, KRAS WT; type: biochemical; conditions: read-out: IC50* KRAS WT FRET data
Outline: as §1

[7] = biological target: KRAS G13D (Homo sapiens (Human), UniProt P01116+P62937, G13D); assay: Ras-Raf (BRAF RBD) disruption / FRET / MOA assay, KRAS G13D; type: biochemical; conditions: read-out: IC50* KRAS G13D FRET data
Outline: as §1

[8] = biological target: NRAS Q61R (Homo sapiens (Human), UniProt P01111+P62937, Q61R); assay: Ras-Raf (BRAF RBD) disruption / FRET / MOA assay, NRAS Q61R; type: biochemical; conditions: NRAS Q61R; Ras-Raf disruption/FRET/MOA assay; read-out: IC50* NRAS Q61R FRET data
Outline: (§2)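 Compounds were tested as a 10-point 3-fold dilution series from 30 μM final for their ability to drive ternary complex formation between nucleotide-loaded Ras and cyclophilin A, displacing the BRAF RBD. After 3 h at 25° C., anti-His Eu-W1024 (10 nM) and anti-GST allophycocyanin (50 nM) were added for 1.5 h. A TR-FRET ratio decrease versus DMSO gave IC50.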

[9] = biological target: NRAS Q61K (Homo sapiens (Human), UniProt P01111+P62937, Q61K); assay: Ras-Raf (BRAF RBD) disruption / FRET / MOA assay, NRAS Q61K; type: biochemical; conditions: NRAS Q61K; Ras-Raf disruption/FRET/MOA assay; read-out: IC50* NRAS Q61K FRET data
Outline: as §2

[10] = biological target: NRAS WT (Homo sapiens (Human), UniProt P01111+P62937); assay: Ras-Raf (BRAF RBD) disruption / FRET / MOA assay, NRAS WT; type: biochemical; conditions: read-out: IC50* NRAS WT FRET data
Outline: as §2

Sequence of NRAS Q61K (P01111 whole entry Q61K): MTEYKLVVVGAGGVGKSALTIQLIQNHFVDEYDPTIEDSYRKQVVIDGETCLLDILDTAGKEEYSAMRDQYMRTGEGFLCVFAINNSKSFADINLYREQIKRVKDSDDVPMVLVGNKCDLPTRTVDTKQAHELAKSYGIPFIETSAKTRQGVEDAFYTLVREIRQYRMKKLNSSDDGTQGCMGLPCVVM
Sequence of NRAS Q61K (P62937 whole entry): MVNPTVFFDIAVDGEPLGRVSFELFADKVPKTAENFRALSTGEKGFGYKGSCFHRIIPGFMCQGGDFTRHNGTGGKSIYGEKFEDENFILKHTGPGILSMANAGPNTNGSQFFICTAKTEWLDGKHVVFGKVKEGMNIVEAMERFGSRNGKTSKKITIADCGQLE
Sequence of KRAS G12S (P01116-2 other isoform, or with tags, fused parts or gaps G12S): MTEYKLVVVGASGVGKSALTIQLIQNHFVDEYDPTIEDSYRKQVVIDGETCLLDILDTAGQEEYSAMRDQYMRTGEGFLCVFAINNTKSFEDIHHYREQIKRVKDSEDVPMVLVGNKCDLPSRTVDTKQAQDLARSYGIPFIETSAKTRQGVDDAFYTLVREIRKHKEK
Sequence of KRAS G12S (P62937 whole entry): as the sequence (P62937 whole entry) above
Sequence of NRAS WT (P01111 whole entry): as the sequence (P01111 whole entry Q61K) above, with K61Q counted along it
Sequence of NRAS WT (P62937 whole entry): as the sequence (P62937 whole entry) above
Sequence of KRAS WT (P01116-2 other isoform, or with tags, fused parts or gaps): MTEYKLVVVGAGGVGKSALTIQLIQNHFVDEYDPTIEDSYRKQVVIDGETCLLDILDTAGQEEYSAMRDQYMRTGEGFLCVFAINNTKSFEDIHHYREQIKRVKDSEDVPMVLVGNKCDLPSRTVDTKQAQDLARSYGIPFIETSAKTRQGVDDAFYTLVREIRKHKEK
Sequence of KRAS WT (P62937 whole entry): as the sequence (P62937 whole entry) above
Sequence of KRAS G12V (P01116-2 other isoform, or with tags, fused parts or gaps G12V): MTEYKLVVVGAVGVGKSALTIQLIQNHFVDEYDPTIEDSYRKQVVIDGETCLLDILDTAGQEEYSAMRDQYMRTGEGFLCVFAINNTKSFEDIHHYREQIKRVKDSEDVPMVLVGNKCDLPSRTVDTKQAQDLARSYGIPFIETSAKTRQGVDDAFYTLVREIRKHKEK
Sequence of KRAS G12V (P62937 whole entry): as the sequence (P62937 whole entry) above
Sequence of KRAS G12D (P01116-2 other isoform, or with tags, fused parts or gaps G12D): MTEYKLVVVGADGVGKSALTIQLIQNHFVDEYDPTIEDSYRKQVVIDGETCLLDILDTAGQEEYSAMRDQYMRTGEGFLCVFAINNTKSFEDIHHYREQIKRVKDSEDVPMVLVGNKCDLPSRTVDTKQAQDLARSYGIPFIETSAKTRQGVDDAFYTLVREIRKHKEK
Sequence of KRAS G12D (P62937 whole entry): as the sequence (P62937 whole entry) above
Sequence of KRAS G13D (P01116-2 other isoform, or with tags, fused parts or gaps G13D): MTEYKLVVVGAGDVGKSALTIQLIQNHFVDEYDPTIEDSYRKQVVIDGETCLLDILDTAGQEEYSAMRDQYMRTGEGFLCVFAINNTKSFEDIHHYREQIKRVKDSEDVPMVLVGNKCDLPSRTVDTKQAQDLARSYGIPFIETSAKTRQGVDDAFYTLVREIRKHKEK
Sequence of KRAS G13D (P62937 whole entry): as the sequence (P62937 whole entry) above
Sequence of NRAS Q61R (P01111 whole entry Q61R): as the sequence (P01111 whole entry Q61K) above, with K61R counted along it
Sequence of NRAS Q61R (P62937 whole entry): as the sequence (P62937 whole entry) above
Sequence of K-Ras G13C (P01116-2 other isoform, or with tags, fused parts or gaps G13C): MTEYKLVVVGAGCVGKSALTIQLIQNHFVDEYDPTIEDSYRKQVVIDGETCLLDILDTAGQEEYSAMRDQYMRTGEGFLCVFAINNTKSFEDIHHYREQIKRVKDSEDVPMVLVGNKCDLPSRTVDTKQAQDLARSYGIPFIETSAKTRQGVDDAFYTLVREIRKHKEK
Sequence of K-Ras G13C (P62937 whole entry): as the sequence (P62937 whole entry) above

| SMILES | pIC50 [1] | pIC50 [2] | pIC50 [3] | pIC50 [4] | pIC50 [5] | pIC50 [6] | pIC50 [7] | pIC50 [8] | pIC50 [9] | pIC50 [10] |
| --- | --- | --- | --- | --- | --- | --- | --- | --- | --- | --- |
| CCn1c(-c2cccnc2[C@H](C)OC)c2c3cc(ccc31)N1CCO[C@@H](C[C@H](NC(=O)[C@H](C(C)C)N(C)C(=O)C3(F)CCN(C(=O)/C=C/CN(C)C)CC3)C(=O)N3CCC[C@H](N3)C(=O)OCC(C)(C)C2)C1 (atropisomer, axis not shown) [Example A645] | 7.00 to 8.00 | 6.00 to 7.00 | 5.00 to 6.00 | 5.00 to 6.00 | 5.00 to 6.00 | 5.00 to 6.00 | 5.00 to 6.00 | < 5.00 | < 5.00 | 5.00 to 6.00 |
| CC#CC(=O)N1CC2(CCN2C(=O)N(C)[C@H](C(=O)N[C@H]2Cc3nc(cs3)-c3ccc4c(c3)c(c(-c3cccnc3[C@H](C)OC)n4CC)CC(C)(C)COC(=O)[C@@H]3CCCN(N3)C2=O)C(C)C)C1 (atropisomer, axis not shown) [Example A655] | 7.00 to 8.00 | 6.00 to 7.00 | 6.00 to 7.00 | 5.00 to 6.00 | 6.00 to 7.00 | 6.00 to 7.00 | 6.00 to 7.00 | 7.00 to 8.00 | 7.00 to 8.00 | 6.00 to 7.00 |
| C=CC(=O)N1CC[C@]2(CCN2C(=O)N(C)[C@H](C(=O)N[C@H]2Cc3nc(cs3)-c3ccc4c(c3)c(c(-c3cccnc3[C@H](C)OC)n4CC)CC(C)(C)COC(=O)[C@@H]3CCCN(N3)C2=O)C(C)C)C1 (atropisomer, axis not shown) [Example A662] | 7.00 to 8.00 | 6.00 to 7.00 | 6.00 to 7.00 | 6.00 to 7.00 | 6.00 to 7.00 | 6.00 to 7.00 | 6.00 to 7.00 | 6.00 to 7.00 | 7.00 to 8.00 | 6.00 to 7.00 |
| CCn1c(-c2cccnc2[C@H](C)OC)c2c3cc(ccc31)-c1csc(n1)C[C@H](NC(=O)[C@H](C(C)C)N(C)C(=O)N1CCCOC13CN(C(=O)C#CC(C)(C)N(C)C)C3)C(=O)N1CCC[C@H](N1)C(=O)OCC(C)(C)C2 (atropisomer, axis not shown) [Example A666] | 7.00 to 8.00 | < 5.00 | < 5.00 | < 5.00 | < 5.00 | < 5.00 | < 5.00 | < 5.00 | < 5.00 | < 5.00 |
| C=CC(=O)N1CC[C@]2(COCCN2C(=O)N(C)[C@H](C(=O)N[C@H]2Cc3nc(cs3)-c3ccc4c(c3)c(c(-c3cccnc3[C@H](C)OC)n4CC)CC(C)(C)COC(=O)[C@@H]3CCCN(N3)C2=O)C(C)C)C1 (atropisomer, axis not shown) [Example A676] | 7.00 to 8.00 | 5.00 to 6.00 | 5.00 to 6.00 | 5.00 to 6.00 | 5.00 to 6.00 | 6.00 to 7.00 | 5.00 to 6.00 | 6.00 to 7.00 | 6.00 to 7.00 | 6.00 to 7.00 |
| C=CC(=O)N1CC2(CCN(C(=O)N(C)[C@H](C(=O)N[C@H]3Cc4cccc(c4)-c4ccc5c(c4)c(c(-c4cccnc4[C@H](C)OC)n5CC)CC(C)(C)COC(=O)[C@@H]4CCCN(N4)C3=O)C(C)C)CC2)C1 (atropisomer, axis not shown) [Example A680] | 7.00 to 8.00 | 7.00 to 8.00 | 6.00 to 7.00 | 5.00 to 6.00 | 6.00 to 7.00 | 6.00 to 7.00 | 5.00 to 6.00 | 6.00 to 7.00 | 6.00 to 7.00 | 6.00 to 7.00 |
| C=CC(=O)N1CC[C@@H]2[C@H](C1)CN2C(=O)N(C)[C@H](C(=O)N[C@H]1Cc2nc(cs2)-c2ccc3c(c2)c(c(-c2cccnc2[C@H](C)OC)n3CC)CC(C)(C)COC(=O)[C@@H]2CCCN(N2)C1=O)C(C)C (atropisomer, axis not shown) [Example A688] | 6.00 to 7.00 | 6.00 to 7.00 | 5.00 to 6.00 | 5.00 to 6.00 | 5.00 to 6.00 | 6.00 to 7.00 | 5.00 to 6.00 | 6.00 to 7.00 | 6.00 to 7.00 | 6.00 to 7.00 |
| C=CC(=O)N1CCC2(CCCN(C(=O)N(C)[C@H](C(=O)N[C@H]3Cc4nc(cs4)-c4ccc5c(c4)c(c(-c4cccnc4[C@H](C)OC)n5CC)CC(C)(C)COC(=O)[C@@H]4CCCN(N4)C3=O)C(C)C)C2)CC1 (atropisomer, axis not shown) [Example A696] | 6.00 to 7.00 | 6.00 to 7.00 | 6.00 to 7.00 | 6.00 to 7.00 | 6.00 to 7.00 | 6.00 to 7.00 | 5.00 to 6.00 | 6.00 to 7.00 | 7.00 to 8.00 | 6.00 to 7.00 |
| CCn1c(-c2cccnc2[C@H](C)OC)c2c3cc(ccc31)-c1cccc(c1)C[C@H](NC(=O)[C@@H](COC1CN(C(=O)C#CC(C)(C)O)C1)C(C)C)C(=O)N1CCC[C@H](N1)C(=O)OCC(C)(C)C2 (atropisomer, axis not shown) [Example A708] | 7.00 to 8.00 | 5.00 to 6.00 | < 5.00 | < 5.00 | 5.00 to 6.00 | 5.00 to 6.00 | < 5.00 | < 5.00 | < 5.00 | 5.00 to 6.00 |
| CCn1c(-c2cccnc2[C@H](C)OC)c2c3cc(ccc31)-c1csc(n1)C[C@H](NC(=O)[C@H](C(C)C)N(C)C(=O)N1CCN(C(=O)/C=C/CN(C)C)C[C@@H]1C)C(=O)N1CCC[C@H](N1)C(=O)OCC(C)(C)C2 (atropisomer, axis not shown) [Example A709] | 7.00 to 8.00 | 6.00 to 7.00 | 6.00 to 7.00 | 6.00 to 7.00 | 6.00 to 7.00 | 6.00 to 7.00 | 6.00 to 7.00 | 6.00 to 7.00 | 7.00 to 8.00 | 7.00 to 8.00 |
| CCn1c(-c2cccnc2[C@H](C)OC)c2c3cc(ccc31)-c1csc(n1)C[C@H](NC(=O)[C@H](C(C)C)N(C)C(=O)N1CC(N(C)C(=O)/C=C/CN(C)C)C1)C(=O)N1CCC[C@H](N1)C(=O)OCC(C)(C)C2 (atropisomer, axis not shown) [Example A710] | 7.00 to 8.00 | 6.00 to 7.00 | 6.00 to 7.00 | 6.00 to 7.00 | 6.00 to 7.00 | 6.00 to 7.00 | 6.00 to 7.00 | 6.00 to 7.00 | 7.00 to 8.00 | 6.00 to 7.00 |
